From US20190216751A1, “Compositions and Methods for the Treatment and Prevention of Cancer” (California State University Northridge, priority 2017, published 2019)

Test system: 4T1, 67NR, MCF10AT1k, MCF10CA1h and MCF10CA1a
Assay: Cell viability at 100 μM GC7, phase-contrast imaging across cell lines
Format: cell-based, mouse, human
Details: 100 μM GC7, 48 hours
Procedure: There are currently two drugs available that can target the activation of eIF5A. Its role of hypusination/activation is spermidine dependent and is carried out in two subsequent steps by the enzymes deoxyhypusine synthase (DHPS) catalyzing the first step and deoxyhypusine hydroxylase (DOHH) catalyzing the second step. The efficacy and potency of the two drugs in the selected cell lines; GC7 (N1-Guanyl-1,7-diaminoheptane)—a selective inhibitor of DHPS, and CPX (Ciclopirox olomine)—which chelates iron that is important for the activity of DOHH (FIG. 2A) are shown. The concentration that determines a 50% decrease in cell viability is noted by the IC50 values on each graph for each drug. These cells were imaged when treated with the second highest concentration of GC7 at 100 μM to show a decrease in cell viability after 48 hours of treatment (FIG. 2B). […] From this point forward, all experiments performed used only GC7 as the selected drug to target hypusinated eIF5A.
The inventors sought to determine if the decrease in cell viability is due to the inhibition of post translational modification of eIF5A. To test this, all cell lines were treated with GC7 at 100 μM for 48 hours—which were the time point and concentration at which a decrease in cell viability was seen (FIG. 2B). […]

N=C(N)NCCCCCCCN.O=S(=O)(O)O [GC7, N1-Guanyl-1,7-diaminoheptane]
decrease in cell viability: largest decrease in cell viability
